Legend:
Assay type in all cases: in vivo
Set-up in all cases: key: 0 is no effect; 10 is complete control
[1] = test system: bedstraw (Galium aparine); test: Test B pre-/postemergence; conditions: for Bedstraw plant response rating: Preemergence
Excerpt: (§1) Seeds of bedstraw (Galium aparine), blackgrass (Alopecurus myosuroides), broadleaf signalgrass (Brachiaria decumbens), cocklebur (Xanthium strumarium), corn (Zea mays), crabgrass (Digitaria sanguinalis), giant foxtail (Setaria faberii), lambsquarters (Chenopodium album), momingglory (Ipomoea hederacea), pigweed (Amaranthus retroflexus), rape (Brassica napus), soybean (Glycine max), sugar beet (Beta vulgaris), velvetleaf (Abutilon theophrasti), wheat (Triticum aestivum), wild oat (Avena fatua) and purple nutsedge (Cyperus rotundus) tubers were planted and treated preemergence with test chemicals formulated in a non-phytotoxic solvent mixture which included a surfactant.
(§2) At the same time, these crop and weed species were also treated with postemergence applications of test chemicals formulated in the same manner. Plants ranged in height from 2 to 18 cm (1- to 4-leaf stage) for postemergence treatments. Plant species in the flood test consisted of rice (Oryza sativa), smallflower flatsedge (Cyperus difformis), duck salad (Heteranthera limosa) and bamyardgrass (Echinochloa crus-galli) grown to the 2-leaf stage for testing. Treated plants and controls were maintained in a greenhouse for twelve to sixteen days, after which all species were compared to controls and visually evaluated. Plant response ratings, summarized in Table B, are based on a scale of 0 to 10 where 0 is no effect and 10 is complete control. A dash (−) response means no test result.

soybean (Glycine max) = test: Test B pre-/postemergence
Excerpt: as §1, §2

[2] = test system: broadleaf signalgrass (Brachiaria decumbens); test: Test B pre-/postemergence; conditions: for B. signalgrass plant response rating: Preemergence
Excerpt: as §1, §2

[3] = test system: momingglory (Ipomoea hederacea); test: Test B pre-/postemergence
Excerpt: as §1, §2

[4] = test system: cocklebur (Xanthium strumarium); test: Test B pre-/postemergence; conditions: for Cocklebur plant response rating: Preemergence
Excerpt: as §1, §2

[5] = test system: purple nutsedge (Cyperus rotundus); test: Test B pre-/postemergence
Excerpt: as §1, §2

[6] = test system: pigweed (Amaranthus retroflexus); test: Test B pre-/postemergence
Excerpt: as §1, §2

[7] = test system: wheat (Triticum aestivum); test: Test B pre-/postemergence
Excerpt: as §1, §2

[8] = test system: sugar beet (Beta vulgaris); test: Test B pre-/postemergence
Excerpt: as §1, §2

[9] = test system: crabgrass (Digitaria sanguinalis); test: Test B pre-/postemergence; conditions: for Crabgrass plant response rating: Preemergence
Excerpt: as §1, §2

[10] = test system: velvetleaf (Abutilon theophrasti); test: Test B pre-/postemergence
Excerpt: as §1, §2

[11] = test system: giant foxtail (Setaria faberii); test: Test B pre-/postemergence
Excerpt: as §1, §2

wild oat (Avena fatua) = test: Test B pre-/postemergence
Excerpt: as §1, §2

[12] = test system: blackgrass (Alopecurus myosuroides); test: Test B pre-/postemergence; conditions: for Blackgrass plant response rating: Preemergence
Excerpt: as §1, §2

corn (Zea mays) = test: Test B pre-/postemergence; conditions: for Corn plant response rating: Preemergence
Excerpt: as §1, §2

rape (Brassica napus) = test: Test B pre-/postemergence
Excerpt: as §1, §2

rice (Oryza sativa) = test: Test B flood test
Method in brief: (§3)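 Each value is a visual injury score relative to controls, with 10 meaning complete control and 0 no effect. Evaluation took place twelve to sixteen days after the 2-leaf-stage plants were treated and kept in the greenhouse.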

[13] = test system: smallflower flatsedge (Cyperus difformis); test: Test B flood test
Method in brief: as §3

[14] = test system: bamyardgrass (Echinochloa crus-galli); test: Test B flood test
Method in brief: as §3

[15] = test system: duck salad (Heteranthera limosa); test: Test B flood test
Method in brief: as §3

[16] = Rate 250 g/ha, Postemergence (so in the source)
[17] = Rate 62 g/ha, Postemergence (flood test)
[18] = Rate 125 g/ha, Postemergence section (flood test species)
[19] = Rate 250 g/ha, Postemergence (flood test species)
[20] = Rate 125 g/ha, Postemergence, flood test

## Cc1cnc(-c2ccc(Cl)cc2)nc1Cc1cccc(C#N)c1 [Compound 33]
[1]; Rate 62 g/ha, Postemergence
  Plant response rating, Bedstraw: 9
[1]; Rate 62 g/ha
  Bedstraw plant response rating: 0
[1]; Rate 125 g/ha, Postemergence
  Plant response rating, Bedstraw: 9
[1]; Rate 125 g/ha
  Bedstraw plant response rating: 1
[1]; Rate 250 g/ha, Postemergence
  Plant response rating, Bedstraw: 9
[1]; [16]
  Plant response rating, Bedstraw: 2
Soybean (Glycine max); Rate 62 g/ha, Postemergence
  Plant response rating, Soybean: 1
Soybean (Glycine max); Rate 62 g/ha, Preemergence
  Soybean plant response rating: 0
Soybean (Glycine max); Rate 125 g/ha, Postemergence
  Soybean plant response rating: 2
Soybean (Glycine max); Rate 125 g/ha, Preemergence
  Plant response rating, Soybean: 0
Soybean (Glycine max); Rate 250 g/ha, Postemergence
  Plant response rating, Soybean: 4
Soybean (Glycine max); [16]
  Plant response rating, Soybean: 0
[2]; Rate 62 g/ha, Postemergence
  Plant response rating, B. signalgrass: 1
[2]; Rate 62 g/ha
  B. signalgrass plant response rating: 0
[2]; Rate 125 g/ha, Postemergence
  Plant response rating, B. signalgrass: 1
[2]; Rate 125 g/ha
  B. signalgrass plant response rating: 1
[2]; Rate 250 g/ha, Postemergence
  Plant response rating, B. signalgrass: 2
[2]; Rate 250 g/ha, Postemergence as printed in head r139 (second section for compounds 26-50)
  Plant response rating, B. signalgrass: 1
[3]; Rate 62 g/ha, Postemergence
  Plant response rating, Morningglory: 2
[3]; Rate 62 g/ha, Preemergence
  Morningglory plant response rating: 0
[3]; Rate 125 g/ha, Postemergence
  Morningglory plant response rating: 5
[3]; Rate 125 g/ha, Preemergence
  Morningglory plant response rating: 0
[3]; Rate 250 g/ha, Postemergence
  Plant response rating, Morningglory: 5
[3]; [16]
  Plant response rating, Morningglory: 0
[4]; Rate 62 g/ha, Postemergence
  Plant response rating, Cocklebur: 3
[4]; Rate 62 g/ha
  Cocklebur plant response rating: 0
[4]; Rate 125 g/ha, Postemergence
  Plant response rating, Cocklebur: 6
[4]; Rate 125 g/ha
  Cocklebur plant response rating: 0
[4]; Rate 250 g/ha, Postemergence
  Plant response rating, Cocklebur: 6
[4]; [16]
  Plant response rating, Cocklebur: 0
[5]; Rate 62 g/ha, Postemergence
  Plant response rating, Nutsedge: 0
[5]; Rate 62 g/ha, Preemergence
  Nutsedge plant response rating: 0
[5]; Rate 125 g/ha, Postemergence
  Nutsedge plant response rating: 0
[5]; Rate 125 g/ha, Preemergence
  Nutsedge plant response rating: 0
[5]; Rate 250 g/ha, Postemergence
  Plant response rating, Nutsedge: 0
[6]; Rate 62 g/ha, Postemergence
  Plant response rating, Redroot pigweed: 1
[6]; Rate 62 g/ha, Preemergence
  Redroot pigweed plant response rating: 0
[6]; Rate 125 g/ha, Postemergence
  Redroot pigweed plant response rating: 2
[6]; Rate 125 g/ha, Preemergence
  Redroot pigweed plant response rating: 0
[6]; Rate 250 g/ha, Postemergence
  Plant response rating, Redroot pigweed: 7
[6]; [16]
  Plant response rating, Redroot pigweed: 2
[7]; Rate 62 g/ha, Postemergence
  Wheat plant response rating: 0
[7]; Rate 62 g/ha, Preemergence
  Wheat plant response rating: 0
[7]; Rate 125 g/ha, Postemergence
  Wheat plant response rating: 1
[7]; Rate 125 g/ha, Preemergence
  Plant response rating, Wheat: 0
[7]; Rate 250 g/ha, Postemergence
  Plant response rating, Wheat: 1
[7]; [16]
  Plant response rating, Wheat: 1
[8]; Rate 62 g/ha, Postemergence
  Plant response rating, Sugarbeets: 10
[8]; Rate 62 g/ha, Preemergence
  Sugarbeets plant response rating: 0
[8]; Rate 125 g/ha, Postemergence
  Sugarbeets plant response rating: 10
[8]; Rate 125 g/ha, Preemergence
  Plant response rating, Sugarbeets: 1
[8]; Rate 250 g/ha, Postemergence
  Plant response rating, Sugarbeets: 10
[8]; [16]
  Plant response rating, Sugarbeets: 4
[9]; Rate 62 g/ha, Postemergence
  Plant response rating, Crabgrass: 0
[9]; Rate 62 g/ha
  Crabgrass plant response rating: 0
[9]; Rate 125 g/ha, Postemergence
  Plant response rating, Crabgrass: 0
[9]; Rate 125 g/ha
  Crabgrass plant response rating: 0
[9]; Rate 250 g/ha, Postemergence
  Plant response rating, Crabgrass: 1
[9]; [16]
  Plant response rating, Crabgrass: 0
[10]; Rate 62 g/ha, Postemergence
  Plant response rating, Velvetleaf: 1
[10]; Rate 62 g/ha, Preemergence
  Velvetleaf plant response rating: 0
[10]; Rate 125 g/ha, Postemergence
  Velvetleaf plant response rating: 4
[10]; Rate 125 g/ha, Preemergence
  Plant response rating, Velvetleaf: 0
[10]; Rate 250 g/ha, Postemergence
  Plant response rating, Velvetleaf: 6
[10]; [16]
  Plant response rating, Velvetleaf: 1
[11]; Rate 62 g/ha, Postemergence
  Plant response rating, Giant foxtail: 0
[11]; Rate 62 g/ha, Preemergence
  Giant foxtail plant response rating: 0
[11]; Rate 125 g/ha, Postemergence
  Giant foxtail plant response rating: 0
[11]; Rate 125 g/ha, Preemergence
  Giant foxtail plant response rating: 1
[11]; Rate 250 g/ha, Postemergence
  Plant response rating, Giant foxtail: 1
[11]; [16]
  Plant response rating, Giant foxtail: 1
Wild oat (Avena fatua); Rate 62 g/ha, Postemergence
  Wild oats plant response rating: 1
Wild oat (Avena fatua); Rate 62 g/ha, Preemergence
  Wild oats plant response rating: 0
Wild oat (Avena fatua); Rate 125 g/ha, Postemergence
  Wild oats plant response rating: 2
Wild oat (Avena fatua); Rate 125 g/ha, Preemergence
  Plant response rating, Wild oats: 0
Wild oat (Avena fatua); Rate 250 g/ha, Postemergence
  Plant response rating, Wild oats: 3
Wild oat (Avena fatua); [16]
  Plant response rating, Wild oats: 1
[12]; Rate 62 g/ha, Postemergence
  Plant response rating, Blackgrass: 0
[12]; Rate 62 g/ha
  Blackgrass plant response rating: 0
[12]; Rate 125 g/ha, Postemergence
  Plant response rating, Blackgrass: 1
[12]; Rate 125 g/ha
  Blackgrass plant response rating: 0
[12]; Rate 250 g/ha, Postemergence
  Plant response rating, Blackgrass: 2
[12]; [16]
  Plant response rating, Blackgrass: 0
Corn (Zea mays); Rate 62 g/ha, Postemergence
  Plant response rating, Corn: 1
Corn (Zea mays); Rate 62 g/ha
  Corn plant response rating: 0
Corn (Zea mays); Rate 125 g/ha, Postemergence
  Plant response rating, Corn: 1
Corn (Zea mays); Rate 125 g/ha
  Corn plant response rating: 0
Corn (Zea mays); Rate 250 g/ha, Postemergence
  Plant response rating, Corn: 1
Corn (Zea mays); [16]
  Plant response rating, Corn: 0
Rape (Brassica napus); Rate 62 g/ha, Postemergence
  Plant response rating, Rape: 6
Rape (Brassica napus); Rate 62 g/ha, Preemergence
  Rape plant response rating: 0
Rape (Brassica napus); Rate 125 g/ha, Postemergence
  Rape plant response rating: 7
Rape (Brassica napus); Rate 125 g/ha, Preemergence
  Rape plant response rating: 0
Rape (Brassica napus); Rate 250 g/ha, Postemergence
  Plant response rating, Rape: 7
Rape (Brassica napus); [16]
  Plant response rating, Rape: 2
Rice (Oryza sativa); [17]
  Plant response rating, Rice: 1
Rice (Oryza sativa); [18]
  Rice plant response rating: 1
Rice (Oryza sativa); [19]
  Plant response rating, Rice: 3
[13]; [17]
  Plant response rating, S. Flatsedge: 3
[13]; [18]
  S. Flatsedge plant response rating: 7
[13]; [19]
  Plant response rating, S. Flatsedge: 8
[14]; [17]
  Plant response rating, Barnyardgrass: 1
[14]; [20]
  Plant response rating, Barnyardgrass: 2
[14]; [19]
  Plant response rating, Barnyardgrass: 3
[15]; [17]
  Plant response rating, Ducksalad: 0
[15]; [20]
  Plant response rating, Ducksalad: 1
[15]; [19]
  Plant response rating, Ducksalad: 2
